Converted amounts (≈) assume the structure as drawn.
Key:
[1] = system: Staphylococcus aureus; test: Antibacterial activity against Staphylococcus aureus at 1 ug/disk after 24 hrs by paper disk method; assay type: functional; details: read-out: IZ
[2] = system: Plasmodium falciparum; test: Antimalarial activity against chloroquine-resistant Plasmodium falciparum PFB in human erythrocytes after 48 hrs by [G-3H]hypoxanthine uptake; assay type: functional, organism-based
[3] = system: Plasmodium falciparum; test: Antimalarial activity against chloroquine-sensitive Plasmodium falciparum F32 in human erythrocytes after 48 hrs by [G-3H]hypoxanthine uptake; assay type: functional, organism-based; details: F32, 48 h
[4] = system: Plasmodium falciparum; test: Antimalarial activity against chloroquine-resistant Plasmodium falciparum FcB1 in human erythrocytes after 48 hrs by [G-3H]hypoxanthine uptake; assay type: functional, organism-based; details: FcB1, 48 h
[5] = system: KB; test: Cytotoxicity against human KB cells by neutral red assay; assay type: functional, cell-based
[6] = system: Candida tropicalis; test: Antifungal activity against Candida tropicalis at 50 ug/disk after 48 hrs by paper disk method; assay type: functional; details: read-out: IZ
[7] = Toxicity against Artemia salina; assay type: organism-based; details: in vivo

Row | SMILES | zone of inhibition at 1 µg/disc [1] | IC50 [2] | IC50 [3] | IC50 [4] | IC50 [5] | zone of inhibition at 50 µg/disc [6] | LC50 [7]
1 | CO[C@@H]1c2cc(O)c(O)cc2O[C@@]2(C)CC[C@H]3C(C)(C)CCC[C@]3(C)[C@@H]12 | 7 mm | 1.2 µg/mL (≈ 3.33 µM) | 0.4 µg/mL (≈ 1.11 µM) | 1.4 µg/mL (≈ 3.88 µM) | 6 µg/mL (≈ 16.6 µM) | 9 mm | –
2 | CC1(C)CCC[C@]2(C)[C@H]3C=C4C=C(O)C(=O)C=C4O[C@@]3(C)CC[C@@H]12 [PUUPEHENONE] | – | 1.5 µg/mL (≈ 4.57 µM) | 0.6 µg/mL (≈ 1.83 µM) | 2.1 µg/mL (≈ 6.39 µM) | 0.5 µg/mL (≈ 1.52 µM) | – | 20 µg/mL (≈ 60.9 µM)
3 | CO[C@@H]1c2cc(OC(C)=O)c(OC(C)=O)cc2O[C@@]2(C)CC[C@H]3C(C)(C)CCC[C@]3(C)[C@@H]12 | – | 1.2 µg/mL (≈ 2.7 µM) | 0.6 µg/mL (≈ 1.35 µM) | 1.4 µg/mL (≈ 3.15 µM) | – | – | –
